Source: the NIST ThermoML archive (doi:10.1021/je200030k)
Numbers after ± are expanded uncertainties.

Key:
[1] = 101.33 kPa, Liquid, Vibrating tube method
[2] = refractive index (Na D-line) (dimensionless); settings: 101.33 kPa, Liquid, Standard Abbe refractometry

## CCCCn1cc[n+](C)c1.NCC(=O)[O-] [1-butyl-3-methylimidazolium glycinate]
[1]; 298.15 K
  mass density: 1260.26 ± 1.1 kg/m3
[1]; 303.15 K
  mass density: 1257.2 ± 1.1 kg/m3
[1]; 308.15 K
  mass density: 1254.1 ± 1.1 kg/m3
[1]; 313.15 K
  mass density: 1250.77 ± 1.1 kg/m3
[2]; 298.15 K
  refractive index: 1.52 ± 0.002
[2]; 303.15 K
  refractive index: 1.519 ± 0.002
[2]; 308.15 K
  refractive index: 1.517 ± 0.002
[2]; 313.15 K
  refractive index: 1.517 ± 0.002

## CCCCO [butan-1-ol]
[1]; 298.15 K
  mass density: 806 ± 1 kg/m3
[1]; 303.15 K
  mass density: 802.4 ± 1 kg/m3
[1]; 308.15 K
  mass density: 798.2 ± 1 kg/m3
[1]; 313.15 K
  mass density: 794.6 ± 1 kg/m3
[2]; 298.15 K
  refractive index: 1.397 ± 0.002
[2]; 303.15 K
  refractive index: 1.395 ± 0.002
[2]; 308.15 K
  refractive index: 1.393 ± 0.002
[2]; 313.15 K
  refractive index: 1.391 ± 0.002

## CC(C)O [propan-2-ol]
[1]; 298.15 K
  mass density: 781.2 ± 1 kg/m3
[1]; 303.15 K
  mass density: 774 ± 1 kg/m3
[1]; 308.15 K
  mass density: 765.8 ± 1 kg/m3
[1]; 313.15 K
  mass density: 757.2 ± 1 kg/m3
[2]; 298.15 K
  refractive index: 1.375 ± 0.002
[2]; 303.15 K
  refractive index: 1.374 ± 0.002
[2]; 308.15 K
  refractive index: 1.373 ± 0.002
[2]; 313.15 K
  refractive index: 1.372 ± 0.002
